Earlier results in US12263217B2, “Nucleic acid stabilizing solution for vaccines, therapy, diagnostics, storage, and transport” (Daykin Molecular Systems, LLC, priority 2020, dated 2025).

tris(hydroxymethyl)aminomethane
doses well tolerated (in vivo): 3.6 grams/50 kg body weight
doses clinically used (parenteral): up to 500 mg/kg weight
